The text below walks through data of patent US7989479B2, “Use of a p38 kinase inhibitor for treating psychiatric disorders” (GlaxoSmithKline LLC, priority 2006, dated 2011).

SMILES strings stand for the structures. Bounds are passed on as bounds.

The test system of assay [1] is LPS induced sickness behaviour. Briefly: LPS induced sickness behaviour in rats. It is filed as in vivo. To be noted: 20 mg/kg p.o. 1 hour before LPS (125 ug/kg i.p.), behavioural assessments 2 hours thereafter. From the text: (§1) Administration of lipopolysaccharide (LPS) to rats is known to produce not only robust measures of sickness behaviour (reduced locomotor activity, reduced intake of both food and water, decreased body weight & decreased social interest) but also large elevations of peripheral pro-inflammatory cytokines and HPA-axis markers that can mimic some of the symptoms and underlying pathobiology observed in major depressive disorder (Dunn et al., (2005). Neurosci. Behav. Rev., 29, 891-909). Indeed the injection of cytokines into man produces such neuropsychiatric disturbances in non-major depressive disorder patients (Schiepers & Maes (2005). Prog. Neuro-psychopharmacol. & Biol. Psych., 29, 201-217).
(§2) 6-(5-Cyclopropylcarbamoyl-3-fluoro-2-methyl-phenyl)-N-(2,2-dimethylpropyl)-nicotinamide was administered (p.o.) 1 hour before the administration of LPS (125 ug/kg i.p.) and then behavioural assessments were performed 2 hours thereafter. A satelite group of animals were treated in the same way and blood samples taken for biomarker analysis.

In assay [2] the test system is LPS induced elevations in TNF-a, IL-6, IL-10 and ACTH levels. Kind of assay: LPS induced elevations of cytokines and HPA-axis markers in blood (biomarker analysis, satellite group). The class given is in vivo. The conditions noted are these: rats; 20 mg/kg p.o. 1 hour before LPS (125 ug/kg i.p.); blood samples.
From the text: as §1, §2

With `Cc1c(F)cc(C(=O)NC2CC2)cc1-c1ccc(C(=O)NCC(C)(C)C)cn1` [6-(5-Cyclopropylcarbamoyl-3-fluoro-2-methyl-phenyl)-N-(2,2-dimethylpropyl)-nicotinamide], the “reversal of LPS induced sickness behaviour” value in assay [1] is on record as “significantly reversed”. Besides, in assay [2], the “reduction in LPS induced elevation in ACTH level” value is recorded as above 80%, the “reduction in LPS induced elevation in IL-6 level” value is reported as above 80%, the “reduction in LPS induced elevation in IL-10 level” value is above 80% and the “reduction in LPS induced elevation in TNF-a level” value was above 80%.
